Values quoted from earlier work as cited in publication PMC4014123 (Acta Crystallographica Section D: Biological Crystallography, 2014).

Test system: I223R/H275Y dual mutation of neuraminidase from influenza A H1N1
Conditions: I223R/H275Y dual mutant vs wild type; ref van der Vries et al., 2012; cited from earlier work

CCOC(=O)C1=C[C@@H](OC(CC)CC)[C@H](NC(C)=O)[C@@H](N)C1 [oseltamivir]
resistance towards oseltamivir relative to wild type: approximately 7500 times
